We go through one compound from patent publication US5663197A, “2-(1-hydroxyethyl)-5-hydroxynaphtho[2,3-b]furan-4,9-dione and antitumor agents comprising this compound” (priority 1992, dated 1997).

As a reminder, the IC50 is the point on the concentration scale where inhibition reaches its midpoint.

Data set [1] has as its system Human malignant B-cell lymphoma cells. The experiment in a line: In vitro antitumor test (trypan blue exclusion viable cell count), malignant B-cell lymphoma. The following applies: 72 h, three days exposure, read-out: LD50 (IC50), 50% growth-inhibitory dose. Type of data set: cell-based.
Data set [2] concerns Normal human tracheal epithelial cells. The experiment in a line: In vitro growth test on normal cells, tracheal epithelial cells. Type of data set: cell-based. As for the experimental part:
(§1) An appropriate amount of NFD was dissolved in DMSO to give a 1.0 mg/ml stock solution, which was diluted as necessary before use.
(§2) The following cells in the late logarithmic phase were harvested after treatment with trypsin (containing 0.25% trypsin and 0.02% EDTA; 37° C., 3 min) and used in the test: human lung adenocarcinoma cell lines A-549, VMRC-LCD and SK-LU-1, human lung squamous cell carcinoma Calu-1 cells, human colon adenocarcinoma WiDr cells, human prostate cancer LNCaP cells, human vaginal squamous cell carcinoma A-431 cells, human cervical carcinoma HeLa cells, human cholangiocarcinoma HuCC-T1 cells, mouse skin cancer melanoma B16 (M4) cells, human pancreatic carcinoma ASPC-1 cells, human neuroblastoma IMR-132 cells, human lung small cell carcinoma SCCH-194 cells, human uninary bladder carcinoma T24 cells, human renal cell carcinoma […] cells, human gastric cancer NUGC-2 cells, human thyroid carcinoma 8305C cells, human hepatoma HUH-7 cells, human ovarian carcinoma TYK-nu cells and human chorio carcinoma BeWo cells. […] These cells were plated onto a 96-well microplate at a density of 5-10×10^3 cells/cm^2 using DMEM or RPMI-1640 medium containing 10% fetal bovine serum and cultured for 24 hours in a conventional manner, after which a pre-determined amount of NFD dissolved in DMSO was added to each well. […]

For data set [3], the system named is Mouse melanoma B16 (M4) cells. The experiment in a line: In vitro antitumor test (trypan blue exclusion viable cell count), B16 (M4). Format: cell-based. As for the experimental part:
as §1, §2

For data set [4], the system named is Normal human N6KA fibroblasts. The experiment in a line: In vitro growth test on normal cells, N6KA fibroblasts. Format: cell-based. As for the experimental part: as §1, §2
In data set [5] the test system is Human lung squamous cell carcinoma Calu-1 cells. The experiment in a line: In vitro antitumor test (trypan blue exclusion viable cell count), Calu-1. Format: cell-based. The following applies: 72 h, three days exposure, read-out: LD50 (IC50), 50% growth-inhibitory dose. As for the experimental part: as §1, §2
Data set [6] deals with Human lung adenocarcinoma SK-LU-1 cells. Briefly: In vitro antitumor test (trypan blue exclusion viable cell count), SK-LU-1. Type of data set: cell-based. As to conditions: 72 h, three days exposure, read-out: LD50 (IC50), 50% growth-inhibitory dose. As for the experimental part:
as §1, §2

Data set [7] has as its system Human ovarian carcinoma TYK-nu cells. The experiment in a line: In vitro antitumor test (trypan blue exclusion viable cell count), TYK-nu. Type of data set: cell-based. As for the experimental part:
as §1
as §2, with “cells. Suspension cultures of human breast cancer MRK-nu-1 cells, human malignant B-cell lymphoma cells and human chronic myelogenous leukemia K562 cells were used to harvest the cells to be used in the test.” for “cells.”, “well. Cultivation was continued, and the number of viable cells was counted after 24, 48 and 72 hours.” for “well.”
(§3) Growth inhibitory action and lethal activity of NFD on various types of malignant tumor cells and normal human cells listed above were evaluated by counting the number of viable cells in each well of the 96-well microplate. […]

Data set [8] concerns Human uninary bladder carcinoma T24 cells. Briefly: In vitro antitumor test (trypan blue exclusion viable cell count), T24. Type of data set: cell-based. As for the experimental part: as §1, §2
The test system of data set [9] is carcinogenic promotion (skin papillomas in mice). The experiment in a line: Inhibition of two-step skin carcinogenesis in mice skin. Type of data set: in vivo, mouse (female ICR). The following applies: DMBA initiator, TPA promoter, 20 weeks; FIG. 28 (NFD 85 nmol), FIG. 29 (lapacoal).
Experimental: Female ICR mice were used as test animals. Fifteen mice were housed in a cage and kept on a commercial pellet diet and drinking water ad libitum until the end of the experiment. The mice were purchased at their age of six-week-old. Dorsal hair of mice was shaved, and next day, 390 nmol of 7,12-dimethylbenz(a)anthracene (DMBA) in 0.1 ml acetone was applied, as an initiator, on the shaved back. One week later, 1.7 nmol of 12-O-tetradecanoylphorbol-13-acetate (TPA) in 0.1 ml acetone was applied, as a promoter, to the same place twice a week. This procedure was repeated for 20 weeks.
Mice were observed once a week for the number of papillomas larger than 1 mm, and the experimental results were given as the percentage of papilloma-bearing mice in each group and the number of papillomas per mouse.
Data set [10] concerns Human prostate cancer LNCaP cells. The experiment in a line: In vitro antitumor test (trypan blue exclusion viable cell count), LNCaP. Type of data set: cell-based. As for the experimental part: as §1
as §2, with “cells. Suspension cultures of human breast cancer MRK-nu-1 cells, human malignant B-cell lymphoma cells and human chronic myelogenous leukemia K562 cells were used to harvest the cells to be used in the test.” for “cells.”, “well. Cultivation was continued, and the number of viable cells was counted after 24, 48 and 72 hours.” for “well.”
as §3

In brackets after ≈: the same amount, converted by molar mass.

Regarding `CC(O)c1cc2c(o1)C(=O)c1cccc(O)c1C2=O` (stereo not drawn) [NFD, 2-(1-hydroxyethyl)-5-hydroxynaphtho[2,3-b]furan-4,9-dione], the IC50 in data set [1] is 0.0056 µg/mL (≈ 0.0217 µM); in data set [2] (Homo sapiens, Epithelial cell, 72 h, normal tracheal epithelial cells, three days exposure, read-out: LD50 (IC50), 50% growth-inhibitory dose) it was above 0.055 µg/mL; in data set [3] (72 h, B16 (M4), three days exposure, read-out: LD50 (IC50), 50% growth-inhibitory dose), 0.0067 µg/mL (≈ 0.0259 µM); in [4] (Homo sapiens, Fibroblast, 72 h, N6KA normal fibroblasts, three days exposure, read-out: LD50 (IC50), 50% growth-inhibitory dose) it was 0.084 µg/mL (≈ 0.325 µM); in data set [5], 0.017 µg/mL (≈ 0.0658 µM); in data set [6] it was 0.017 µg/mL (≈ 0.0658 µM). The IC50 in data set [7] (Homo sapiens, 72 h, TYK-nu, three days exposure, read-out: LD50 (IC50), 50% growth-inhibitory dose) is 0.017 µg/mL (≈ 0.0658 µM); in data set [8] (T-24, 72 h, T24, three days exposure, read-out: LD50 (IC50), 50% growth-inhibitory dose), 0.021 µg/mL (≈ 0.0813 µM); in [10] (Homo sapiens, 72 h, LNCaP, three days exposure, read-out: LD50 (IC50), 50% growth-inhibitory dose) it was 0.0017 µg/mL (≈ 0.00658 µM). Also, the “adverse effects on growth of normal cells” value is recorded as “no adverse effects” in data set [2] (FIG. 25, at concentrations which cause necrosis in tumor cells) and “no adverse effects” in data set [4] (FIG. 24, at concentrations which cause necrosis in tumor cells). Further, the IC (almost complete) in [3] (FIG. 10, read-out: concentration inhibiting growth almost completely) worked out at 0.0112 µg/mL; in data set [7] (Homo sapiens, FIG. 22, read-out: concentration inhibiting growth almost completely), 0.02 µg/mL; in [8] (T-24, FIG. 16, read-out: concentration inhibiting growth almost completely), 0.023 µg/mL; in data set [10] (FIG. 6 (LNCaP; sentence prints human colon adenocarcinoma cells), read-out: concentration inhibiting growth almost completely), 0.0112 µg/mL. Further, the “concentration causing necrosis in almost all tumor cells” value is at least 40 ng/mL in data set [7] (FIG. 22) and 22.4 to 55.9 ng/mL in data set [10] (FIG. 6 (LNCaP; sentence prints human colon adenocarcinoma cells)). Also, the “inhibitory effect on carcinogenic promotion in skin” value in data set [9] is “inhibitory effect”.
